Here are results for 38 compounds from US20030225081A1, “Pyridazinones and triazinones and medicinal use thereof” (priority 2000, published 2003).

The test has as its system AMPA receptor. Briefly: Suppressing action to calcium influx into nerve cells induced by AMPA. Format: cell-based. Conditions: Fura2-AM, stimulation with 2 μM AMPA, primary culture of rat embryo cerebral cortex nerve cells, 1 μM MK-801. The source says:
Suppressing Action to Calcium Influx into Nerve Cells Induced by AMPA
The suppressing action of the compounds of the present invention to calcium influx into nerve cells induced by AMPA was investigated using the primary culture system of nerve cells of cerebral cortex of embryo of rat.
Cerebral cortex was cut out from the brain of rat of gestational 18 days and treated with trypsin and DNase to disperse the cells. The cells were flown by MEM containing 10% of serum, sown in a culture bottle and astrocytes were proliferated. The astrocytes were re-dispersed by trypsin and sown in a 96-well plate. After incubation for one week, it was confirmed that the astrocytes covered all over the bottom and then the nerve cells of cerebral cortex which was dispersed by the above method were sown thereupon. After incubation for 24 hours, the medium was changed, the incubation was carried out for one week and, after that, the medium was changed to that containing 1 μM of MK-801. Nerve cells which were incubated for not shorter than 8 to 10 days were used.
Calcium influx into the cells was measured using Fura2-AM which was a calcium-sensitive fluorescent dye. It was treated in a medium containing Fura2-AM for 1 hour, incorporated into the cells, exchanged to a Tyrode solution containing 1 μM MK-801 and stimulation was carried out using 2 μM AMPA. Change in the amount of calcium flown into the cells were measured as the change in the fluorescent intensity at the exciting wave length of 340/380 nm. […] As the control compound, GYKI52466 (Le Peillet, et al., Brain Res., 571, 115, 1992) was used.

As for `N#Cc1ccccc1-n1nc(-c2ccccc2)cc(C(=O)NCCN2CCOCC2)c1=O` [Example 12, 2-(2-Cyanophenyl)-4-(4-morpholinoethylaminocarbonyl)-6-phenyl-3 (2H)-pyridazinone], the IC50 turned out to be 3900 nM.

Consider `COc1ccccc1-c1cc(-c2ccccn2)nn(-c2ccccc2C#N)c1=O` [Example 40, 2-(2-Cyanophenyl)-4-(2-methoxyphenyl)-6-(2-pyridyl)-3 (2H)-pyridazinone], for which the 50% inhibitory concentration (IC50) turned out to be 100 nM.

As to `N#Cc1ccccc1-n1nc(-c2ncccn2)cc(-c2ccccc2)c1=O` [Example 70, 2-(2-Cyanophenyl)-4-phenyl-6-(2-pyrimidinyl)-3 (2H)-pyridazinone], the IC50 was determined as 800 nM.

For the compound `N#Cc1ccccc1-n1nc(-c2ccccn2)cc(-c2ccccc2Br)c1=O` [Example 47, 4-(2-Bromophenyl)-2-(2-cyanophenyl)-6-(2-pyridyl)-3 (2H)-pyridazinone], the IC50 was determined as 200 nM.

For `O=C1N(c2ccccc2Br)CC(c2ccccc2)=NN1c1ccccc1` [Example 113, 4-(2-Bromophenyl)-2,6-diphenyl-4,5-dihydro-1,2,4-triazin-3 (2H)-one], the half-inhibitory concentration (IC50) worked out at 7100 nM.

On to `COc1ccccc1C1CC(c2ccccn2)=NN(c2ccccc2)C1=O` (centres unmarked) [Example 18, 4-(2-Methoxyphenyl)-2-phenyl-6-(2-pyridyl)-4,5-dihydro-3 (2H)-pyridazinone], for which the half-inhibitory concentration (IC50) was 100 nM.

For `N#Cc1ccccc1-n1nc(-c2ccccn2)cc(-c2ccccc2O)c1=O` [Example 42, 2-(2-Cyanophenyl)-4-(2-hydroxyphenyl)-6-(2-pyridyl)-3 (2H)-pyridazinone], the IC50 was determined as 100 nM.

For `O=C1C(c2ccccc2)CC(c2ccccn2)=NN1c1ccccc1F` (centres unmarked) [Example 28, 2-(2-Fluorophenyl)-4-phenyl-6-(2-pyridyl)-4,5-dihydro-3 (2H)-pyridazinone], the 50% inhibitory concentration (IC50) came out at 100 nM.

Take `CSc1ccc(N2CC(c3ccccn3)=NN(c3ccccc3Br)C2=O)cc1` [Example 125, 2-(2-Bromophenyl)-4-(4-thiomethoxyphenyl)-6-(2-pyridyl)-4,5-dihydro-1,2,4-triazin-3 (2H)-one]: the half-maximal inhibitory concentration (IC50) came to 600 nM.

With `N#Cc1ccccc1N1N=C(c2ccccn2)CN(c2cccc(N)c2)C1=O` [Example 128, 2-(2-Cyanophenyl)-4-(3-aminophenyl)-6-(2-pyridyl)-4,5-dihydro-1,2,4-triazin-3 (2H)-one], the IC50 came out at 100 nM.

Regarding `O=C1N(c2cccnc2)CC(c2ccccn2)=NN1c1ccccc1Br` [Example 110, 2-(2-Bromophenyl)-6-(2-pyridyl)-4-(3-pyridyl)-4,5-dihydro-1,2,4-triazin-3 (2H)-one], the 50% inhibitory concentration (IC50) amounted to 100 nM.

`O=c1c(-c2ccccc2)cc(-c2ncccn2)nn1-c1cccnc1` [Example 75, 2-(3-Pyridyl)-4-phenyl-6-(2-pyrimidinyl)-3 (2H)-pyridazinone]: the concentration for half-maximal inhibition (IC50) turned out to be 700 nM.

Regarding `COc1ccccc1C1=NN(c2ccccc2)C(=O)N(c2ccccc2C#N)C1` [Example 98, 4-(2-Cyanophenyl)-6-(2-methoxyphenyl)-2-phenyl-4,5-dihydro-1,2,4-triazin-3 (2H)-one], the IC50 stood at 400 nM.

Regarding `O=C1C(c2cccnc2)C2COc3ccccc3C2=NN1c1ccccc1I` (centres unmarked) [Example 8, 2-(2-Iodophenyl)-4-(3-pyridyl)-2,3,4,4a-tetrahydro-5H-(1)benzopyrano[4,3-c]pyridazin-3-one], the IC50 was 100 nM.

`O=C1N(c2cccc([N+](=O)[O-])c2)CC(c2ccccn2)=NN1c1ccccc1Br` [Example 121, 2-(2-Bromophenyl)-4-(3-nitrophenyl)-6-(2-pyridyl)-4,5-dihydro-1,2,4-triazin-3 (2H)-one]: the IC50 was found to be 400 nM.

As for `COc1ccccc1C1CC(c2ccccn2)=NN(c2ccccc2I)C1=O` (centres unmarked) [Example 17, 2-(2-Iodophenyl)-4-(2-methoxyphenyl)-6-(2-pyridyl)-4,5-dihydro-3 (2H)-pyridazinone], the half-inhibitory concentration (IC50) is 200 nM.

`O=C1C(c2ccccc2)CC(c2ccccn2)=NN1c1ccccc1Br` (centres unmarked) [Example 19, 2-(2-Bromophenyl)-4-phenyl-6-(2-pyridyl)-4,5-dihydro-3 (2H)-pyridazinone]: the IC50 came to 60 nM.

As to `N#Cc1ccccc1-n1nc(-c2ccccn2)cc(-c2cccc(OCCO)c2)c1=O` [Example 4, 2-(2-Cyanophenyl)-4-[3-(2-hydroxyethoxy)phenyl]-6-(2-pyridyl)-3 (2H)-pyridazinone], the IC50 worked out at 60 nM.

As for `N#Cc1ccccc1-c1cc(-c2ccccn2)nn(-c2ccccc2)c1=O` [Example 23, 4-(2-Cyanophenyl)-2-phenyl-6-(2-pyridyl)-3 (2H)-pyridazinone], the concentration for half-maximal inhibition (IC50) is 100 nM.

As for `O=c1c(-c2ccccc2O)cc(-c2ccccn2)nn1-c1ccccc1Br` [Example 51, 2-(2-Bromophenyl)-4-(2-hydroxyphenyl)-6-(2-pyridyl)-3 (2H)-pyridazinone], the 50% inhibitory concentration (IC50) came to 800 nM.

With `COc1ccccc1C1CC(c2cccnc2)=NN(c2ccccc2Br)C1=O` (centres unmarked) [Example 24, 2-(2-Bromophenyl)-4-(2-methoxyphenyl)-6-(3-pyridyl)-4,5-dihydro-3 (2H)-pyridazinone], the IC50 turned out to be 60 nM.

Take `O=C1C(c2ccccc2)CC(c2cccnc2)=NN1c1ccccc1Br` (centres unmarked) [Example 20, 2-(2-Bromophenyl)-4-phenyl-6-(3-pyridyl)-4,5-dihydro-3 (2H)-pyridazinone]: the IC50 was found to be 100 nM.

Consider `O=C1N(c2ccsc2)CC(c2ccccn2)=NN1c1ccccc1Br` [Example 106, 2-(2-Bromophenyl)-6-(2-pyridyl)-4-(thiophen-3-yl)-4,5-dihydro-1,2,4-triazin-3 (2H)-one], for which the IC50 was determined as 100 nM.

In the case of `N#Cc1ccccc1N1N=C2c3cc(F)ccc3OCC2C(c2ccccc2)C1=O` (centres unmarked) [Example 48, 2-(2-Cyanophenyl)-9-fluoro-4-phenyl-2,3,4,4a-tetrahydro-5H-(1)benzopyrano[4,3-c]pyridazin-3-one], the IC50 worked out at 100 nM.

In the case of `COc1ccccc1N1N=C(c2ccccn2)CC(c2ccccc2)C1=O` (centres unmarked) [Example 26, 2-(2-Methoxyphenyl)-4-phenyl-6-(2-pyridyl)-4,5-dihydro-3 (2H)-pyridazinone], the half-inhibitory concentration (IC50) was found to be 300 nM.

In the case of `O=C1N(c2ccccc2)CC(c2ccccc2O)=NN1c1ccccc1Br` [Example 90, 2-(2-Bromophenyl)-6-(2-hydroxyphenyl)-4-phenyl-4,5-dihydro-1,2,4-triazin-3 (2H)-one], the 50% inhibitory concentration (IC50) was 900 nM.

On to `N#Cc1ccccc1N1CC(c2ccccn2)=NN(c2ccccc2Br)C1=O` [Example 111, 2-(2-Bromophenyl)-4-(2-cyanophenyl)-6-(2-pyridyl)-4,5-dihydro-1,2,4-triazin-3 (2H)-one], for which the IC50 stood at 400 nM.

For `O=C1N(c2ccccc2)CC(c2ncccn2)=NN1c1ccccc1Cl` [Example 129, 2-(2-Chlorophenyl)-4-phenyl-6-(2-pyrimidinyl)-4,5-dihydro-1,2,4-triazin-3 (2H)-one.], the half-maximal inhibitory concentration (IC50) worked out at 3000 nM.

As to `O=C1C(c2ccccc2O)CC(c2cccnc2)=NN1c1ccccc1Br` (centres unmarked) [Example 34, 2-(2-Bromophenyl)-4-(2-hydroxyphenyl)-6-(3-pyridyl)-4,5-dihydro-3 (2H)-pyridazinone], the IC50 is 300 nM.

Regarding `O=C1N(c2ccccc2O)CC(c2ccccn2)=NN1c1ccccc1Br` [Example 86, 2-(2-Bromophenyl)-4-(2-hydroxyphenyl)-6-(2-pyridyl)-4,5-dihydro-1,2,4-triazin-3 (2H)-one], the IC50 was determined as 100 nM.

Take `O=c1c(-c2ccccc2Br)cc(-c2ccccn2)nn1-c1ccccc1` [Example 60, 4-(2-Bromophenyl)-2-phenyl-6-(2-pyridyl)-3 (2H)-pyridazinone]: the 50% inhibitory concentration (IC50) was determined as 200 nM.

For `N#Cc1ccccc1-n1nc(-c2cnccn2)cc(-c2ccccc2)c1=O` [Example 82, 2-(2-Cyanophenyl)-4-phenyl-6-(2-pyrazinyl)-3 (2H)-pyridazinone], the IC50 amounted to 1200 nM.

As for `O=c1c(-c2ccccc2)cc(-c2ccccn2)nn1-c1cccnc1` [Example 74, 2-(3-Pyridyl)-4-phenyl-6-(2-pyridyl)-3 (2H)-pyridazinone], the IC50 came to 900 nM.

In the case of `O=C1N(c2cccnc2)CC(c2ccccn2)=NN1c1ccccc1` [Example 109, 2-Phenyl-6-(2-pyridyl)-4-(3-pyridyl)-4,5-dihydro-1,2,4-triazin-3 (2H)-one], the concentration for half-maximal inhibition (IC50) was 300 nM.

As to `COc1ccccc1N1CC(c2ccccn2)=NN(c2ccccc2C#N)C1=O` [Example 87, 2-(2-Cyanophenyl)-4-(2-methoxyphenyl)-6-(2-pyridyl)-4,5-dihydro-1,2,4-triazin-3 (2H)-one], the IC50 was 50 nM.

As for `COc1ccccc1C1=NN(c2ccccc2C#N)C(=O)N(c2ccccn2)C1` [Example 99, 2-(2-Cyanophenyl)-6-(2-methoxyphenyl)-4-(2-pyridyl)-4,5-dihydro-1,2,4-triazin-3 (2H)-one], the IC50 is 70 nM.

`N#Cc1ccccc1-n1nc2c(c(-c3ccccc3)c1=O)COc1ccccc1-2` [Example 7, 2-(2-Cyanophenyl)-4-phenyl-2,3-dihydro-5H-(1)benzopyrano[4,3-c]pyridazin-3-one]: the 50% inhibitory concentration (IC50) was 200 nM.

For the compound `O=c1c(-c2ccccc2O)cc(-c2ccccn2)nn1-c1ccccc1` [Example 32, 4-(2-Hydroxyphenyl)-2-phenyl-6-(2-pyridyl)-3 (2H)-pyridazinone], the half-inhibitory concentration (IC50) is 100 nM.

One may read the IC50 as the concentration that gives 50% inhibition.
